“And” between values parts separate entries of the source, which are not always exact repeats. Equal values may be shown once. Read-outs that look alike come from different tables or passages of the source.
Assays:
[1] = shear cell tests using a FT-4 powder rheometer; assay type: physicochemical; details: niraparib drug substance; for BD (bulk density): shear cell test
Description: As used herein, “flow function” or FF is a parameter commonly used to rank powder's flowability and is determined using a shear test. The data produced in the shear test represents the relationship between shear stress and normal stress, which can be plotted to define the powder's Yield Locus. Fitting Mohr stress circles to the yield locus identifies the Major Principle Stress (MPS) and Unconfined Yield Strength (UYS). Flow function is the ratio of Major Principle Stress (MPS) to the Unconfined Yield Strength (UYS):
Shear testing can be used measure powder shear properties which involves the stress limit required to initiate a powder flow. The shear testing uses a segmented rotational shear cell head and a 10 ml powder sample in the borosilicate test vessel. Powder is filled into the vessel. The shear cell head is simultaneously rotated and moved axially under the powder sample at pre-determined normal stresses as the shear stresses are measured to calculate several parameters, including the flow function (FF). Usually, powders of low cohesion have higher FF and that represents better flow properties. The permeability test can measure the ease of air transmission through a bulk powder which can be related to the powder's flowability. For example, a permeability testing can use a vented piston with an aeration base and 10 mL powder sample in the borosilicated test vessel.
Samples of powder compositions were prepared to evaluate the powder compositions disclosed herein. The following tests/measurements were made using a FT-4 powder rheometer from Freeman technology.
The cohesion (kPa), Unconfined Yield Strength (UYS) (kPa), Maj or Principle Stress (MPS) (kPa), flow function (FF) (MPS/UYS), Angle of internal friction (AIF), and bulk density (BD) (g/cm^3) were determined by carrying out shear cell tests using a FT-4 powder rheometer and the results can be seen in the tables below: […]

[2] = wall friction test, FT-4 powder rheometer, stainless steel discs; assay type: physicochemical; details: niraparib batches, Ra 0.05; for BD (bulk density): wall friction test
From the text: A Wall Friction test can be used to provide a measurement of the sliding resistance between a powder and the surface of process equipment, such as an encapsulator or blender or hopper. This can be important for understanding discharge behavior from hoppers, continuity of flow in transfer chutes and tablet ejection forces. It is also useful when investigating whether a powder will adhere to the wall of process equipment and various other surfaces, such as the inside of sachets, capsules and other packaging material. The measurement principle is very similar to the shear cell test, but rather than shearing powder against powder, in this test a coupon of material representing the process equipment wall is sheared against the powder in question. The FT4 Wall Friction accessory allows for a range of coupons to be investigated, and bespoke surfaces can be manufactured if required. Data is typically represented as a plot of shear stress against normal stress, allowing the determination of Wall Friction Angle (phi). The greater the wall friction angle, the higher the resistance between the powder and wall coupon.
The measurement principle is very similar to the shear cell test, but rather than shearing powder against powder, in this test a coupon of material representing the process equipment wall is sheared against the powder in question. The FT4 Wall Friction accessory allows for a range of coupons to be investigated. Wall Friction is typically represented as a plot of shear stress against normal stress, allowing the determination of Wall Friction Angle (phi). The greater the wall friction angle, the higher the resistance between the powder and wall coupon.
A wall friction test method was developed to assess the interaction between the drug substance and stainless steel. […]
The head continues to move downwards until the required normal stress is established. […] The torque required to maintain this rotational is measured which enables a “steady-state” shear stress to be calculated. […] A series of shear stress values is measured for a range of target applied stresses. […]

[3] = drug substance
Description: These batches were divided into sub-lots at various time intervals and each sub-lot was analyzed for content uniformity.

[4] = crystalline solid drug substance
[5] = tested on: intracellular PARP activity
[6] = tested on: tumor models
[7] = in vivo; details: 50 mg/kg
[8] = tested on: intracellular PARP activity; details: read-out: inhibited PARP activity in a whole cell assay, EC50; cited from earlier work
[9] = tested on: cancer cells with mutant BRCA-1 and BRCA-2; details: read-out: inhibited proliferation, CC50; cited from earlier work

Row | Structure (SMILES) | AIF (Angle of internal friction) [1] | Cohesion [1] | FF, flow function (MPS/UYS) [1] | MPS (Major Principle Stress) [1] | UYS (Unconfined Yield Strength) [1] | BD (bulk density) [1] | BD (bulk density) [2] | also measured
1 | Cc1ccc(S(=O)(=O)O)cc1.NC(=O)c1cccc2cn(-c3ccc(C4CCCNC4)cc3)nc12.O (stereo not drawn) [Non Milled, Annealed A] | 36.54 ° and 35.80 ° | 1.10 kPa and 1.02 kPa | 4.27 and 4.66 | 18.64 kPa and 18.50 kPa | 4.36 kPa and 3.97 kPa | 0.38 g/mL and 0.37 g/mL | 0.37 g/mL and 0.38 g/mL and 0.39 g/mL | –
2 | Cc1ccc(S(=O)(=O)O)cc1.NC(=O)c1cccc2cn(-c3ccc(C4CCCNC4)cc3)nc12.O (stereo not drawn) [Non Milled, Annealed D] | 30.49 ° and 31.30 ° | 1.14 kPa and 1.06 kPa | 4.12 and 4.32 | 16.44 kPa and 16.24 kPa | 3.99 kPa and 3.76 kPa | 0.44 g/mL and 0.46 g/mL | 0.44 g/mL and 0.46 g/mL and 0.45 g/mL | WFA (Wall friction angle) [2]: 27.29 ° and 31.10 ° and 30.98 °
3 | Cc1ccc(S(=O)(=O)O)cc1.NC(=O)c1cccc2cn(-c3ccc([C@@H]4CCCNC4)cc3)nc12 [Niraparib tosylate monohydrate, 2-{4-[(3S)-piperidin-3-yl]phenyl}-2H-indazole 7-carboxamide 4-methylbenzenesulfonate hydrate (1:1:1)] | – | – | – | – | – | – | – | bulk density [3]: 0.34-0.45 g/cc; tapped density [3]: 0.53-0.66 g/cc; hygroscopicity [4]: non-hygroscopic
4 | NC(=O)c1cccc2cn(-c3ccc([C@@H]4CCCNC4)cc3)nc12 [Niraparib, 2-{4-[(3S)-piperidin-3-yl]phenyl}-2H-indazole-7-carboxamide] | – | – | – | – | – | – | – | intracellular PARP activity IC90 ([5]; mass concentration equivalent): 0.016 µg/mL; IC50 ([5]; read-out: intracellular PARP activity IC50): 4 nM; IC90 ([5]; read-out: intracellular PARP activity IC90): 50 nM; tumor regression ([6]; 50 mg/kg, daily dosing): tumor regression; tumor regression ([6]; dosing switched from 75 mg/kg olaparib to 50 mg/kg niraparib): tumor regression was achieved; concentration at 6 h [7]: ~4570 ng/mL; EC50 [8]: 4 nM; CC50 [9]: 10 to 100 nM
5 | O=C(c1cc(Cc2n[nH]c(=O)c3ccccc23)ccc1F)N1CCN(C(=O)C2CC2)CC1 [olaparib] | – | – | – | – | – | – | – | tumor regression ([6]; same model, dose of 75 mg/kg): did not result in tumor regression

— patent US20210038585A1 (Tesaro, Inc., priority 2017, published 2021)
